Test [1] has as its target T1, EGFR (T790M/L858R) (Homo sapiens, UniProt P00533, L858R/T790M).
T1 construct: purchased Carna Biosciences, Inc
Put plainly: EGFR (T790M/L858R) kinase inhibitory activity. The class given is biochemical. The settings on record: ATP 1 μM, 25° C. for 120 minutes.

Test [2] concerns the target T2, EGFR (L858R) (Homo sapiens, UniProt P00533, L858R).
T2 construct: purchased Carna Biosciences, Inc
The test can be described thus: EGFR (L858R) kinase inhibitory activity. The class given is biochemical. The settings on record: ATP 4 μM. The protocol: (§1) Among the materials of the inhibitory activity measurement, the substrate peptide and the kinase protein were obtained as follows. A peptide with biotinylated N-terminus (biotin-EEPLYWSFPAKKK) was synthesized with reference to FL-Peptide 22, a reagent for LabChip® series of PerkinElmer, Inc. For the kinase protein, a purified recombinant human EGFR (T790M/L858R) protein of Carna Biosciences, Inc. was purchased.
(§2) The inhibitory activity measurement was performed as follows. The compounds of the present invention were individually dissolved in dimethyl sulfoxide (DMSO), and serial dilutions of these compounds were prepared using DMSO. Subsequently, a solution containing the substrate peptide (final concentration: 250 nM), magnesium chloride (final concentration: 10 mM), manganese chloride (final concentration: 10 mM), and ATP (final concentration: 1 μM) in a buffer solution for kinase reaction (Carna Biosciences, Inc.) was mixed with the dilutions of the compounds (final concentration of DMSO upon kinase reaction: 2.5%) or DMSO (final concentration: 2.5%). EGFR (T790M/L858R) protein was further added thereto, and the mixtures were incubated at 25° C. for 120 minutes to carry out a kinase reaction. EDTA was added thereto to a final concentration of 24 mM to thereby terminate the reaction. A phosphorylated thyrosine detection solution containing europium (Eu)-labeled anti-phosphorylated tyrosine antibody PT66 (PerkinElmer, Inc.) and SureLight APC-SA (PerkinElmer, Inc.) was added to the reaction mixtures, and the mixtures were allowed to stand at room temperature for 2 hours or more. For the background, a sample to which EDTA was added before addition of EGFR (T790M/L858R) protein was incubated at 25° C. for 120 minutes, using DMSO instead of the DMSO solution of the compound. The detection solution was also added to this sample, and the mixture was allowed to stand for 2 hours or more. Finally, for all of the test samples, the amount of fluorescence at the time of irradiation of excitation light having a wavelength of 337 nm was measured at dual wavelengths of 620 nm and 665 nm by PHERAstar FS (BMG LABTECH), and a ratio of the fluorescence amounts at the two wavelengths was obtained as data.
(§3) Based on the above rates, phosphorylation inhibition rates (%) were calculated for the samples to which various concentrations of the compound solutions were added. Finally, the obtained reaction inhibition rates (%) at the respective concentrations were plotted for each compound, and the IC50 value (nM), which is a compound concentration at which phosphorylation by EGFR (T790M/L858R) is inhibited by 50%, was determined using XLfit curve-fitting software (IDBS).
The inhibitory activities of the compounds of the present invention against EGFR (L858R) kinase activity were measured.
The materials, the measurement method, and the data analysis method were substantially the same as those shown in the above description regarding “Measurement of EGFR (T790M/L858R) Kinase Inhibitory Activity,” except that a purified recombinant human EGFR (L858R) protein purchased from Carna Biosciences, Inc. was used as the kinase protein, and the measurement was performed with ATP at a final concentration of 4 μM. Finally, the IC50 value (nM) of each compound with respect to EGFR (L858R) was determined by data analysis.

The subject of test [3] is HCC827 expressing EGFR (d746-750). The test can be described thus: Growth inhibition, HCC827 expressing EGFR (d746-750). The class given is cell-based. To be noted: Homo sapiens, HCC827, 72 h; cultured three days, CellTiter-Glo. The protocol:
(§4) (1) A human […] lung cancer cell line NCI-H1975 expressing EGFR (T790M/L858R), (2) a human non-small cell lung cancer cell line HCC827 expressing EGFR (d746-750), and (3) a human epithelioid cancer cell line A431 expressing EGFR (WT) were each suspended in complete growth medium recommended by ATCC. The cell suspensions were seeded in each well of a 384-well flat microplate or a 96-well flat plate, and cultured in an incubator containing 5% carbon dioxide gas at 37° C. for one day. Each compound of the present invention was dissolved in DMSO, and serial dilutions of the test compound were prepared using DMSO (to a concentration 500 times the final concentration). The DMSO solution of the test compound or DMSO was diluted with complete growth medium, and the resulting solution was added to each well of the cell culture plate so that the final concentration of DMSO was 0.2%. Then, the cells were cultured in an incubator containing 5% carbon dioxide gas at 37° C. for three days. The number of cells was measured before the addition of the DMSO solution of the test compound, as well as after addition and culture by using a CellTiter-Glo Assay® (produced by Promega) according to a protocol recommended by Promega.
(§5) For each cell, the cell growth inhibition rates of the wells to which the test compounds at various concentrations were added were calculated by the following formula. Then, the obtained inhibition rates (%) at the respective concentrations were plotted for each test compound, and the GI50 value (nM), which is a test compound concentration at which the cell growth can be inhibited by 50%, was determined using XLfit curve-fitting software (IDBS). • Cell Growth Inhibition Rate (%)=(C−T)/(C−CO)×100 • T: Luminescence intensity of well cultured for three days after addition of the test compound solution • C: Luminescence intensity of well cultured for three days after addition of DMSO • C0: Luminescence intensity of well before addition of the test compound solution
A general note: In ATP-based viability assays light output follows the ATP content of the culture.

Test [4] has as its system NCI-H1975 expressing EGFR (T790M/L858R). Put plainly: Growth inhibition, NCI-H1975 expressing EGFR (T790M/L858R). The settings on record: Homo sapiens, NCI-H1975, 72 h; cultured three days, CellTiter-Glo. The class given is cell-based. The protocol: as §4, §5
Test [5] concerns the target T3, EGFR (d746-750) (Homo sapiens, UniProt P00533, DEL746-750).
T3 construct: purchased Carna Biosciences, Inc
Put plainly: EGFR (d746-750) kinase inhibitory activity. To be noted: ATP 5 μM, kinase reaction 90 minutes. The class given is biochemical. The protocol: as §1, §2, §3
The inhibitory activities of the compounds of the present invention against EGFR (d746-750) kinase activity were measured.
The materials, the measurement method, and the data analysis method were substantially the same as those shown in the above description regarding “Measurement of EGFR (T790M/L858R) Kinase Inhibitory Activity,” except that a purified recombinant human EGFR (d746-750) protein purchased from Carna Biosciences, Inc. was used as the kinase protein, the measurement was performed with ATP at a final concentration of 5 μM, and the incubation for the kinase reaction was performed for 90 minutes. Finally, the IC50 value (nM) of each compound with respect to EGFR (d746-750) was determined by data analysis.

Test [6] has as its system A431 expressing EGFR (WT). Put plainly: Growth inhibition, A431 expressing EGFR (WT). Type of test: cell-based. The settings on record: Homo sapiens, A-431, 72 h; cultured three days, CellTiter-Glo. The protocol: as §4, §5
The target of test [7] is T4, EGFR (WT) (Homo sapiens, UniProt P00533).
T4 construct: expressing a cytoplasmic domain of human EGFR (WT) with its N-terminus fused to a FLAG tag; FLAG (N); made in house; host or cells: insect Sf9 cells, baculovirus expression system
T4 sequence (P00533 669-1210 limits assumed): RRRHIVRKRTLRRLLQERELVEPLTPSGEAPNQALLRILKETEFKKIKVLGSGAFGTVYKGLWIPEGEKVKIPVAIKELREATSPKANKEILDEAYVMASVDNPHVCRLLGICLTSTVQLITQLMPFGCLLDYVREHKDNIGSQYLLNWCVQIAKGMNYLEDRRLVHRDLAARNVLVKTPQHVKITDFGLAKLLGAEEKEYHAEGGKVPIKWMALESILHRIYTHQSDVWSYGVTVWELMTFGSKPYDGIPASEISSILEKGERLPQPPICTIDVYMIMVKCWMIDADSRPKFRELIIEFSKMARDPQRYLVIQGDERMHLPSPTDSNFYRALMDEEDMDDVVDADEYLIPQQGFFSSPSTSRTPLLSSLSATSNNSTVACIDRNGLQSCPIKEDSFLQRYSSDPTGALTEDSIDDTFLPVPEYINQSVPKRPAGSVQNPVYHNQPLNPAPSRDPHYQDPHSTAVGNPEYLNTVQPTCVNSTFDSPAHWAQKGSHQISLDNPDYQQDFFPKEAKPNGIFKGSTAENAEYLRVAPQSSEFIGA
The test can be described thus: EGFR (WT) kinase inhibitory activity. Type of test: biochemical. To be noted: substrate peptide 500 nM. The protocol: as §1, §2, §3
The inhibitory activities of the compounds of the present invention against EGFR (WT) kinase activity were measured.
The materials, the measurement method, and the data analysis method were substantially the same as those shown in the above description regarding “Measurement of EGFR (T790M/L858R) Kinase Inhibitory Activity,” except that a kinase protein prepared by expressing a cytoplasmic domain of human EGFR (WT) with its N-terminus fused to a FLAG tag in insect Sf9 cells using a baculovirus expression system and then purifying it with anti-FLAG antibody agarose (Sigma-Aldrich) was used as the kinase protein, the final concentration of the substrate peptide was 500 nM, and the final concentration of ATP was […]. Finally, the IC50 value (nM) of each compound with respect to EGFR (WT) was determined by data analysis.

The target in test [8] is T5, EGFR (d746-750/T790M) (Homo sapiens, UniProt P00533, DEL746-750/T790M).
T5 construct: purchased Carna Biosciences, Inc
T5 sequence (P00533 with tags, fused parts or gaps DEL746-750/T790M limits assumed): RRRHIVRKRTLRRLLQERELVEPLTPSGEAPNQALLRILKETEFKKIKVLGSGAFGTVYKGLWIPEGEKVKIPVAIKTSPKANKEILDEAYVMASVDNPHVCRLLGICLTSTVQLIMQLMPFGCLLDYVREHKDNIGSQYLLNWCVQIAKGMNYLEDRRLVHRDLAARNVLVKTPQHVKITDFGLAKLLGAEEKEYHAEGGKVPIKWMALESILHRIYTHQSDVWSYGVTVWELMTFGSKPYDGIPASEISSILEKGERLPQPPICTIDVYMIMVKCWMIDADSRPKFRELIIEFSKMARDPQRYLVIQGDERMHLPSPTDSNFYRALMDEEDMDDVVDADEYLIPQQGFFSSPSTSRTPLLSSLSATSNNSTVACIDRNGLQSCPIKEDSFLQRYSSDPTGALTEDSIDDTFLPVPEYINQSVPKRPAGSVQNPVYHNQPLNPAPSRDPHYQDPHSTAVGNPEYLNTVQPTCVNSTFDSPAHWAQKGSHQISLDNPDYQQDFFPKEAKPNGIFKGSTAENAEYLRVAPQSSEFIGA
The test can be described thus: EGFR (d746-750/T790M) kinase inhibitory activity. The class given is biochemical. To be noted: ATP 1.5 μM. As to the method: as §1, §2, §3
The inhibitory activities of the compounds of the present invention against EGFR (d746-750/T790M) kinase activity were measured.
The materials, the measurement method, and the data analysis method were substantially the same as those shown in the above description regarding “Measurement of EGFR (T790M/L858R) Kinase Inhibitory Activity,” except that a purified recombinant human EGFR (d746-750/T790M) protein purchased from Carna Biosciences, Inc. was used as the kinase protein, and the measurement was performed with an ATP final concentration of 1.5 μM. Finally, the IC50 value (nM) of each compound with respect to EGFR (d746-750/T790M) was determined by data analysis.

T1 sequence (P00533 25-1210 T790M/L858R): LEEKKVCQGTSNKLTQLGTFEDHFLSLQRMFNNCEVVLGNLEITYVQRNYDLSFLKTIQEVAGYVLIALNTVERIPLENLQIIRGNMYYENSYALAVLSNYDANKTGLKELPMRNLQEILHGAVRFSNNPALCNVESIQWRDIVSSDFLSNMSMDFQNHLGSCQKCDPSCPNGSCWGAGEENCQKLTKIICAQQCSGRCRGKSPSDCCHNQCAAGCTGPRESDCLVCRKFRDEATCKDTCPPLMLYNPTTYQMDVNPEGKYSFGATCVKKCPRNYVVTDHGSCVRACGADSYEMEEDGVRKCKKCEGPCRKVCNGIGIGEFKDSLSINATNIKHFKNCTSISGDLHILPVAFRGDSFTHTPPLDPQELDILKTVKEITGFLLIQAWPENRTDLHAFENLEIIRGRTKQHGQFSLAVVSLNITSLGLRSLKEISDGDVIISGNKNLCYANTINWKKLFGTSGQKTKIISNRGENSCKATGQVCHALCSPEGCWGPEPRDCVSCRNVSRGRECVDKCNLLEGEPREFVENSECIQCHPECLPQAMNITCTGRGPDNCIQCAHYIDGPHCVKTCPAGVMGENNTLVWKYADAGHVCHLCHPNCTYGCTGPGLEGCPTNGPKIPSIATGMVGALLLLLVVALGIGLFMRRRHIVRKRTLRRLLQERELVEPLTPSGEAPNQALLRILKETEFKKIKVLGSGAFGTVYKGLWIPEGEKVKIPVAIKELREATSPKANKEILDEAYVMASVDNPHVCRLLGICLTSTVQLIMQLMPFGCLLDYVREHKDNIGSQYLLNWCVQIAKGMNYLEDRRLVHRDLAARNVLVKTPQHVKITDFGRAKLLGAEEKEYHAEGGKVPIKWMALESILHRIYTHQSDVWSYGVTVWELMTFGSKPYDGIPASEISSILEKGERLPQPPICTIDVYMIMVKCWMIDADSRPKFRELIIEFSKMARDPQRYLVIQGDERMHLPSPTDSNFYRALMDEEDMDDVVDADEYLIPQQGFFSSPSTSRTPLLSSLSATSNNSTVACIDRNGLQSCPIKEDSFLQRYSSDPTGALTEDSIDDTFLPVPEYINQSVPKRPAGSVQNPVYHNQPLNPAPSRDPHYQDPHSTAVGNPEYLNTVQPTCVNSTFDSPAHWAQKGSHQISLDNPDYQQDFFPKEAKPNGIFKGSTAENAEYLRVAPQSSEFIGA
T3 sequence (P00533 with tags, fused parts or gaps DEL746-750 limits assumed): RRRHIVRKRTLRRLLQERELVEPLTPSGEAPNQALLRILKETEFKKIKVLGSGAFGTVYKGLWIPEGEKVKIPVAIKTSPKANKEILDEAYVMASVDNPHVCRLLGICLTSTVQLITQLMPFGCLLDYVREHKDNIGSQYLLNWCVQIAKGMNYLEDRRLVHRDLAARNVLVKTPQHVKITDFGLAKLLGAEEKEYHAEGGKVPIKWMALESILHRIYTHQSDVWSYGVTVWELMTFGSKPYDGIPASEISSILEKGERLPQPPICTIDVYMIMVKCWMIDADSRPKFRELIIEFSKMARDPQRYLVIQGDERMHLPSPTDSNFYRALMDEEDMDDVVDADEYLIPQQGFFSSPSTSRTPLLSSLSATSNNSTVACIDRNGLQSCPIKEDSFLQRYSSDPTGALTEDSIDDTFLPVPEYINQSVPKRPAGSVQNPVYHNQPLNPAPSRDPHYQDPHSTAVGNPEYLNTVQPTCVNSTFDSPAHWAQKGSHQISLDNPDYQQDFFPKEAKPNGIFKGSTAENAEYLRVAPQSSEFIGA
T2 sequence (P00533 25-1210 L858R): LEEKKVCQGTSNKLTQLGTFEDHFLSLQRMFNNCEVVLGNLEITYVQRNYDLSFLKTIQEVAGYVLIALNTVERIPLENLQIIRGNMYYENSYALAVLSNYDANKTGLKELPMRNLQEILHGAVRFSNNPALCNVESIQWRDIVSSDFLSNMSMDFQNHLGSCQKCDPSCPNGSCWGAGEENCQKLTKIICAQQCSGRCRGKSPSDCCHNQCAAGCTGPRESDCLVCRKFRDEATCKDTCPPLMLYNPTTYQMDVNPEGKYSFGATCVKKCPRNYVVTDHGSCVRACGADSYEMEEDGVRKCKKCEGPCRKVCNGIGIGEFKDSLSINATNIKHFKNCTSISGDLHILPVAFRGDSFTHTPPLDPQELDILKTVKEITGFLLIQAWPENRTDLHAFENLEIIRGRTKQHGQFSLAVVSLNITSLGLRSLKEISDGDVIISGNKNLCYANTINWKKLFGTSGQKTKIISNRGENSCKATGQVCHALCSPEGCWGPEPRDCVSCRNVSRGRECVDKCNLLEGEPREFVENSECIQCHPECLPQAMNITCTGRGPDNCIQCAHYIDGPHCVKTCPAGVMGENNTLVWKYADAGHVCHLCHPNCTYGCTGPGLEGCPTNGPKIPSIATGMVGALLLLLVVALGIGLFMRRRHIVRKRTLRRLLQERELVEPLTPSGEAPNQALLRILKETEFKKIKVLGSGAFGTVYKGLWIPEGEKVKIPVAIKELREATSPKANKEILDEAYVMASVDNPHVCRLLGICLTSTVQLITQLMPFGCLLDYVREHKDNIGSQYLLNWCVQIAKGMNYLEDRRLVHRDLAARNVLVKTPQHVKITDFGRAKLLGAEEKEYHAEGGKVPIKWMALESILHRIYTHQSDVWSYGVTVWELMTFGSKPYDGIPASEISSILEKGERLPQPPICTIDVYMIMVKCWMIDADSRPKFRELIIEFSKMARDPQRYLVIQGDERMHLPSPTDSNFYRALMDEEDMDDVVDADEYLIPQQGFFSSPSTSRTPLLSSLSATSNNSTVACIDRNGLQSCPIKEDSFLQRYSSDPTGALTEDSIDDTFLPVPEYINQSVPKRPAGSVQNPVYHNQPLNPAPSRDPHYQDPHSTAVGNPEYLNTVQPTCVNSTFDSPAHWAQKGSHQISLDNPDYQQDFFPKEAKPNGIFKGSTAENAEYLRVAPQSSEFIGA

By IC50 is commonly meant the concentration needed to halve the response being measured. Low readings indicate higher potency, high ones lower potency. In general, GI50 refers to the concentration giving 50% growth inhibition. Turning to `C=C1c2c(-c3cnc4ccccc4c3)c3c(N)ncnc3n2C[C@H]1NC(=O)/C=C/CN(C)C(C)C` [Example 12, (S,E)-N-(4-amino-6-methylene-5-(quinolin-3-yl)-7,8-dihydro-6H-pyrimido[5,4-b]pyrrolizin-7-yl)-4-(isopropyl(methyl)amino)but-2-enamide], the IC50 in test [1] was 0.00066 µM; in test [2], 0.0012 µM; in test [5], 0.00075 µM; in test [7], 0.011 µM; in test [8] it was 0.00029 µM. The results for the GI50 in test [3], in test [4] and in test [6] were 0.0079 µM, 0.24 µM and 3.5 µM, respectively.
Turning to `C=CC(=O)N[C@H]1C/C(=C\C)c2c(-c3cnc4ccccc4c3)c3c(N)ncnc3n2C1` [Example 19, (S,E)-N-(4-amino-6-ethylidene-5-(quinolin-3-yl)-6,7,8,9-tetrahydropyrimido[5,4-b]indolizin-8-yl)acrylamide], the IC50 in test [1] is 0.00026 µM; in test [2], 0.00027 µM; in test [5], 0.00042 µM; in test [7] it was 0.0022 µM; in test [8], 0.00028 µM. Also, the figures for the concentration for 50% growth inhibition (GI50) in test [3], in test [4] and in test [6] were 0.0056 µM, 0.049 µM and 0.99 µM, respectively.
Consider `C=CC(=O)N[C@@H]1CCn2c(c(-c3cnc4ccccc4c3)c3c(N)ncnc32)C1=C` [Example 13, (R)—N-(4-amino-6-methylene-5-(quinolin-3-yl)-6,7,8,9-tetrahydropyrimido[5,4-b]indolizin-7-yl)acrylamide], for which the IC50 in test [1] amounted to 0.0021 µM; in test [2] it was 0.0028 µM; in test [5], 0.0021 µM; in test [7] it was 0.024 µM; in test [8] it was 0.0011 µM. Moreover, the GI50 in test [3] is 0.013 µM; in test [4] it was 0.15 µM; in test [6], 1.2 µM.
With `C=CC(=O)N(C)[C@@H]1CC(=C)c2c(-c3cnc4ccccc4c3)c3c(N)ncnc3n2C1` [Example 22, (R)—N-(4-amino-6-methylene-5-(quinolin-3-yl)-6,7,8,9-tetrahydropyrimido[5,4-b]indolizin-8-yl)-N-methylacrylamide], the 50% inhibitory concentration (IC50) in test [1] stood at 0.00035 µM; in test [2] it was 0.00037 µM; in test [5], 0.00033 µM; in test [7] it was 0.0055 µM; in test [8], 0.00023 µM. The GI50 is 0.0057 µM in test [3], 0.056 µM in test [4] and 1.5 µM in test [6].
Consider `C=CC(=O)N[C@@H]1Cn2c(c(-c3cnc4ccccc4c3)c3c(N)ncnc32)C1C` (stereo partly drawn) [Example 24, N-((7S)-4-amino-6-methyl-5-(quinolin-3-yl)-7,8-dihydro-6H-pyrimido[5,4-b]pyrrolizin-7-yl)acrylamide], for which the IC50 is 0.00083 µM in test [1]; 0.0011 µM in test [2]; 0.00085 µM in test [5]; 0.0086 µM in test [7]; 0.00031 µM in test [8]. In addition, the GI50 in test [3] amounted to 0.0049 µM; in test [4] it was 0.11 µM; in test [6], 3.4 µM.
As for `C=CC(=O)N[C@@H]1CC(=C)c2c(-c3cnc4ccccc4c3)c3c(N)ncnc3n2C1` [Example 17, (R)—N-(4-amino-6-methylene-5-(quinolin-3-yl)-6,7,8,9-tetrahydropyrimido[5,4-b]indolizin-8-yl)acrylamide], the IC50 in test [1] turned out to be 0.023 µM; in test [2] it was 0.05 µM; in test [5], 0.039 µM; in test [7], 0.58 µM; in test [8], 0.011 µM. Also, the GI50 in test [3] was 0.16 µM; in test [4] it was 2.9 µM; in test [6], greater than 10 µM.
In the case of `C=C(C)C(=O)N[C@@H]1Cn2c(c(-c3cnc4ccccc4c3)c3c(N)ncnc32)C1=C` [Example 2, (S)—N-(4-amino-6-methylene-5-(quinolin-3-yl)-7,8-dihydro-6H -pyrimido[5,4-b]pyrrolizin-7-yl)methacrylamide], the IC50 in test [1] was 0.077 µM; in test [2] it was 0.23 µM; in test [5] it was 0.078 µM; in test [7], 1.4 µM; in test [8] it was 0.03 µM. Moreover, the GI50 in test [3] is 0.78 µM; in test [4], 4.2 µM; in test [6], greater than 10 µM.

The record behind these values is patent US9758526B2, “Quinoline-substituted compound” (TAIHO PHARMACEUTICAL CO., LTD., priority 2013, dated 2017).
